Results: patent US20160193216A1 (Nimbus Iris, Inc., priority 2012, published 2016)

The molecules below were run against T1, IRAK4 (Homo sapiens, UniProt Q9NWZ3) (assay: IRAK-4 activity inhibition assay (Caliper)). Settings: 37 μM ATP, 3.5 nM IRAK4.
T1 sequence (Q9NWZ3 1-460): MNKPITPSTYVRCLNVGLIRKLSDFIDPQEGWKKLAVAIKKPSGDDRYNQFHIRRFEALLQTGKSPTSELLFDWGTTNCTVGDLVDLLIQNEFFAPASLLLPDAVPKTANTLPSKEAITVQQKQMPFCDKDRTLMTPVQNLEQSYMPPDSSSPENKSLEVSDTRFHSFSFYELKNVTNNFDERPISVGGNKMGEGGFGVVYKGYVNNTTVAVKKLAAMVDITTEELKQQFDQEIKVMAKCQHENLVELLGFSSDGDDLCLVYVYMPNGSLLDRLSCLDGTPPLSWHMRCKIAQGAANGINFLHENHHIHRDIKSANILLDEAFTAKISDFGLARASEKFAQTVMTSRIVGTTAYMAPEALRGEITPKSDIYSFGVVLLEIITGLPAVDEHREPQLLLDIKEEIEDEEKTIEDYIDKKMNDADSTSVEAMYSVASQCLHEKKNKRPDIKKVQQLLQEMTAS
Type: biochemical

SMILES	IC50
CN(C)[C@H]1CC[C@H](Oc2ncnc3sc4c(c23)C(C)(C)CC4)CC1 [Compound I-7, (1r,4r)-4-((5,5-dimethyl-6,7-dihydro-5H-cyclopenta[4,5]thieno[2,3-d]pyrimidin-4-yl)oxy)-N,N-dimethylcyclohexanamine]	< 5 µM
CN(C)[C@H]1CC[C@H](Nc2ncnc3sc4c(c23)C(CC(=O)O)CC4)CC1 (some centres unmarked) [Compound I-18]	5 to 20 µM
CN(C)[C@H]1CC[C@H](Oc2ncnc3sc4c(c23)[C@@H](C[C@@H](O)C(N)=O)CC4)CC1 [Compound I-75, (2R)-3-[(3R)-12-[[4-(dimethylamino)cyclohexyl]oxy]-7-thia-9,11-diazatricyclo[6.4.0.0̂[2,6]]dodeca-1(8),2(6),9,11-tetraen-3-yl]-2-hydroxypropanamide]	< 5 µM
CC[C@]1(N(C)C)CC[C@H](Oc2ncnc3sc4c(c23)[C@@H](CCO)CC4)CC1 [Compound I-91, 2-((R)-4-(((1r,4R)-4-(dimethylamino)-4-ethylcyclohexyl)oxy)-6,7-dihydro-5H-cyclopenta[4,5]thieno[2,3-d]pyrimidin-5-yl)ethanol]	< 5 µM
CC[C@@H](O)C[C@H]1CCc2sc3ncnc(N[C@H]4CC[C@H](N(C)C)CC4)c3c21 [Compound I-52]	< 5 µM
CCOC(=O)C1CCc2sc3ncnc(N[C@H]4CC[C@H](N(C)C)CC4)c3c21 (some centres unmarked) [Compound I-1]	5 to 20 µM
CN(C)[C@H]1CC[C@H](Nc2ncnc3sc4c(c23)C(CC(=O)NCCO)CC4)CC1 (some centres unmarked) [Compound I-26, 2-(12-[[4-(dimethylamino)cyclohexyl]amino]-7-thia-9,11-diazatricyclo[6.4.0.0̂[2,6]]dodeca-1(8),2(6),9,11-tetraen-3-yl)-N-(2-hydroxyethyl)acetamide]	5 to 20 µM
CC1(C(N)=O)CCc2sc3ncnc(O[C@H]4CC[C@H](N5CCOCC5)CC4)c3c2C1 (some centres unmarked) [Compound I-237, 12-methyl-3-[[(1r,4r)-4-(morpholin-4-yl)cyclohexyl]oxy]-8-thia-4,6-diazatricyclo[7.4.0.0[2,7]]trideca-1(9),2,4,6-tetraene-12-carboxamide]	< 5 µM
C[C@]1(N)CC[C@H](Oc2ncnc3sc4c(c23)[C@@H](CC(N)=O)CC4)CC1 [Compound I-161, 2-[(3R)-12-[(4-amino-4-methylcyclohexyl)oxy]-7-thia-9,11-diazatricyclo[6.4.0.0[2,6]]dodeca-1(8),2(6),9,11-tetraen-3-yl]acetamide]	5 to 20 µM
CCN[C@H]1CC[C@H](Oc2ncnc3sc4c(c23)[C@@H](C[C@@H](O)C(N)=O)CC4)CC1 [Compound I-139, (2R)-3-[(3R)-12-[[4-(ethylamino)cyclohexyl]oxy]-7-thia-9,11-diazatricyclo[6.4.0.0[2,6]]dodeca-1(8),2(6),9,11-tetraen-3-yl]-2-hydroxypropanamide]	< 5 µM
CC[C@@H](C[C@H]1CCc2sc3ncnc(N[C@H]4CC[C@H](N(C)C)CC4)c3c21)OC [Compound I-148, (1r,4R)-N1-((R)-5-((S)-2-methoxybutyl)-6,7-dihydro-5H-cyclopenta[4,5]thieno[2,3-d]pyrimidin-4-yl)-N4,N4-dimethylcyclohexane-1,4-diamine]	< 5 µM
CN(C)[C@H]1CC[C@H](Oc2ncnc3sc4c(c23)[C@@H](C[C@@H](O)c2cc[nH]n2)CC4)CC1 [Compound I-98, (R)-2-((R)-4-(((1r,4R)-4-(dimethylamino)cyclohexyl)oxy)-6,7-dihydro-5H-cyclopenta[4,5]thieno[2,3-d]pyrimidin-5-yl)-1-(1H-pyrazol-3-yl)ethanol]	< 5 µM
CC[C@@H](C[C@H]1CCc2sc3ncnc(O[C@H]4CC[C@H](N(C)C)CC4)c3c21)OC [Compound I-119, (1R,4r)-4-(((R)-5-((S)-2-methoxybutyl)-6,7-dihydro-5H-cyclopenta[4,5]thieno[2,3-d]pyrimidin-4-yl)oxy)-N,N-dimethylcyclohexanamine]	< 5 µM
CN(C)[C@H]1CC[C@H](Nc2ncnc3sc4c(c23)C(C(=O)NCCCO)CC4)CC1 (some centres unmarked) [Compound I-28, 12-[[4-(dimethylamino)cyclohexyl]amino]-N-(3-hydroxypropyl)-7-thia-9,11-diazatricyclo[6.4.0.0̂[2,6]]dodeca-1(12),2(6),8,10-tetraene-3-carboxamide]	20 to 50 µM
CC[C@]1(N(C)C)CC[C@H](Oc2ncnc3sc4c(c23)[C@@H](CC(N)=O)CC4)CC1 [Compound I-95, 2-[(3R)-12-[[4-(dimethylamino)-4-ethylcyclohexyl]oxy]-7-thia-9,11-diazatricyclo[6.4.0.0[2,6]]dodeca-1(8),2(6),9,11-tetraen-3-yl]acetamide]	< 5 µM
NC(=O)C[C@H]1CCc2sc3ncnc(O[C@H]4CC[C@H](N)CC4)c3c21 [Compound I-150, 2-[(3R)-12-[(4-aminocyclohexyl)oxy]-7-thia-9,11-diazatricyclo[6.4.0.0[2,6]]dodeca-1(12),2(6),8,10-tetraen-3-yl]acetamide]	< 5 µM
CN(C)[C@H]1CC[C@H](Nc2ncnc3sc4c(c23)C(C)(C)CC4)CC1 [Compound I-6, (1r,4r)-N1-(5,5-dimethyl-6,7-dihydro-5H-cyclopenta[4,5]thieno[2,3-d]pyrimidin-4-yl)-N4,N4-dimethylcyclohexane-1,4-diamine]	5 to 20 µM
C[C@H](O)C[C@H]1CCc2sc3ncnc(N[C@H]4CC[C@H](N(C)C)CC4)c3c21 [Compound I-55]	< 5 µM
CN(C)[C@H]1CC[C@H](Oc2ncnc3sc4c(c23)CN(C(=O)CCCO)CC4)CC1 [Compound I-190, 1-(3-[[4-(dimethylamino)cyclohexyl]oxy]-8-thia-4,6, 12-triazatricyclo[7.4.0.0[2,7]]trideca-1(9),2,4,6-tetraen-12-yl)-4-hydroxybutan-1-one]	20 to 50 µM
CCS(=O)(=O)N1CCc2sc3ncnc(N[C@H]4CC[C@H](N5CCOCC5)CC4)c3c2C1 [Compound I-181, 12-(ethanesulfonyl)-N-[4-(morpholin-4-yl)cyclohexyl]-8-thia-4,6, 12-triazatricyclo[7.4.0.0[2,7]]trideca-1(9),2(7),3,5-tetraen-3-amine]	5 to 20 µM
CN(C)[C@H]1CC[C@H](Oc2ncnc3sc4c(c23)[C@@H](CC(=O)NCC(N)=O)CC4)CC1 [Compound I-58, N-(2-amino-2-oxoethyl)-2-((R)-4-(((1r,4R)-4-(dimethylamino)cyclohexyl)oxy)-6,7-dihydro-5H-cyclopenta[4,5]thieno[2,3-d]pyrimidin-5-yl)acetamide]	< 5 µM
C[C@@H](O)CNC(=O)C[C@H]1CCc2sc3ncnc(O[C@H]4CC[C@H](N(C)C)CC4)c3c21 [Compound I-141, 2-((R)-4-(((1r,4R)-4-(dimethylamino)cyclohexyl)oxy)-6,7-dihydro-5H-cyclopenta[4,5]thieno[2,3-d]pyrimidin-5-yl)-N—((R)-2-hydroxypropyl)acetamide]	5 to 20 µM
CC[C@H](O)C[C@H]1CCc2sc3ncnc(O[C@H]4CC[C@H](N(C)CC(=O)N5CCCC5)CC4)c3c21 [Compound I-72, 2-(((1R,4r)-4-(((R)-5-((S)-2-hydroxybutyl)-6,7-dihydro-5H-cyclopenta[4,5]thieno[2,3-d]pyrimidin-4-yl)oxy)cyclohexyl)(methyl)amino)-1-(pyrrolidin-1-yl)ethanone]	< 5 µM
